Results: patent publication US20260325533A1, “CDK INHIBITOR COMPOUNDS” (ALEKSIA THERAPEUTICS, INC., priority 2023, published 2026)
Like-named read-outs stand apart in the source and are kept apart here.

Tests used:
Assay type in all cases: biochemical
CDK6/CCND1 = CDK6/CCND1 (Homo sapiens, UniProt Q00534); assay: CDK6 homogeneous time-resolved fluorescence (HTRF) kinase assay; settings: CDK6/CCND
Procedure, shortened: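 Assay conditions: HEPES buffer containing 10 mM MgCl2, 1 mM EGTA, 2 mM DTT, 0.01% Tween 20; 1 nM CDK6/CCND1, 50 nM peptide substrate, 1 mM ATP. Detection after 60 min reaction used 2 nM europium antibody with 340 nm excitation. Potency fitted from half-log series, 11 points.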

CDK4/CCND3 = CDK4/CCND3 (Homo sapiens, UniProt P11802); assay: CDK4 homogeneous time-resolved fluorescence (HTRF) kinase assay; settings: CDK4/CCND
Sequence of CDK4/CCND3 (P11802 whole entry): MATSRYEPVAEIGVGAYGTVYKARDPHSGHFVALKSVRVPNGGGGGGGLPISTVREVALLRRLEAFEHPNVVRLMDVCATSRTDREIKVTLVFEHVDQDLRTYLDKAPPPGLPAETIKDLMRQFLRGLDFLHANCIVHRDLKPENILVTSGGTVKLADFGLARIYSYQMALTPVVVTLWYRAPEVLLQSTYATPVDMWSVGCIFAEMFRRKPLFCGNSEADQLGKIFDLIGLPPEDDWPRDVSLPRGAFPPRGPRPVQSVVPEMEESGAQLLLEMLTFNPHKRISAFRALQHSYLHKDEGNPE
Sequence of CDK4/CCND3 (P30281 whole entry partner): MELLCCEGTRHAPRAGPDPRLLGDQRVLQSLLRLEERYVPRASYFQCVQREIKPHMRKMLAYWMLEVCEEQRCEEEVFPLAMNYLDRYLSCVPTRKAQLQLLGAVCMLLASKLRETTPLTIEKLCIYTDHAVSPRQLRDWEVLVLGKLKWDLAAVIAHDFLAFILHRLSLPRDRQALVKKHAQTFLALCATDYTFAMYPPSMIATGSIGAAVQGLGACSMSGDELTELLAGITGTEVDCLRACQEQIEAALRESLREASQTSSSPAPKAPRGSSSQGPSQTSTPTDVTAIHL
Procedure, shortened: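 TR-FRET read (665 nm, or 665/615 ratio) of 4E-BP1 Thr37/46 phosphorylation by 1.5 nM CDK4/CCND3 at 1 mM ATP, 50 nM ULight peptide, 1% DMSO. Reaction ran 60 min at 23 °C after 20 min compound–enzyme preincubation. IC50 from 11-point half-log dilutions, top 10 μM.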

CDK1/CCNB1 = CDK1/CCNB1 (Homo sapiens, UniProt P06493); assay: CDK1 homogeneous time-resolved fluorescence (HTRF) kinase assay; settings: CDK1/CCNB
Sequence of CDK1/CCNB1 (P06493 whole entry): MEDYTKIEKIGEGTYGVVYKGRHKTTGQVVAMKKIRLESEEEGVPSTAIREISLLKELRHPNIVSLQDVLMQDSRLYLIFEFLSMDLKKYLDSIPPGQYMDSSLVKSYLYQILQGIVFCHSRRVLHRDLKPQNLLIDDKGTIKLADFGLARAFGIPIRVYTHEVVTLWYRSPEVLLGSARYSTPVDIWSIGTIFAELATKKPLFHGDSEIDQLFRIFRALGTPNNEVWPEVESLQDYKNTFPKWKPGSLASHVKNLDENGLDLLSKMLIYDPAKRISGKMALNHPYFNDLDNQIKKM
Sequence of CDK1/CCNB1 (P14635 whole entry partner): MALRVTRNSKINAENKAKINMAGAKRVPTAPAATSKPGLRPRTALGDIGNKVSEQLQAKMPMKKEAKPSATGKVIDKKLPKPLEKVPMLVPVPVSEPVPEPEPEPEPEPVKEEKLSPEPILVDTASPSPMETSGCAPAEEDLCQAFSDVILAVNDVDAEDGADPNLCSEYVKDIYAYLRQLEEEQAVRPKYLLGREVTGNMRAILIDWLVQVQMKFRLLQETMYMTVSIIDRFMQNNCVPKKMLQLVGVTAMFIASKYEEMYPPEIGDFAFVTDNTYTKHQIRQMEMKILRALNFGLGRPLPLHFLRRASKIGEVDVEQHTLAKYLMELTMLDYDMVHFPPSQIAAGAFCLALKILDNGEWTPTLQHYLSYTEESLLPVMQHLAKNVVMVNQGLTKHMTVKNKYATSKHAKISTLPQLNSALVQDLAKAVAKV
Procedure, shortened: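 Kinase activity is measured as Lance signal (665 nm, or 665/615 nm ratio) from europium-labelled anti-phospho-Thr37/46 antibody binding ULight-4E-BP1 peptide. Reactions contain 0.5 nM enzyme, 1 mM ATP, 1% DMSO and run 60 min at 23 °C before EDTA quench.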

CDK2/CCNE1 = CDK2/CCNE1 (Homo sapiens, UniProt P24941); assay: CDK2 homogeneous time-resolved fluorescence (HTRF) kinase assay; settings: CDK2/CCNE
Procedure, shortened: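 TR-FRET read-out (665 nm, or 665/615 ratio) of Eu-antibody detection of phospho-4E-BP1 (Thr37/46) ULight peptide. Enzyme 3 nM, ATP 1 mM, peptide 50 nM, 1% DMSO; 60 min reaction at 23 °C after 20 min compound preincubation. IC50 from 11-point half-log titrations, top typically 10 μM.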

[1] = x = IC50 25-250 nM, read-out: CDK6/CCND IC50 (25-250 nM)
[2] = x = IC50 <25 nM, read-out: CDK2/CCNE IC50 (<25 nM)
[3] = x = IC50 >250 nM, read-out: CDK6/CCND IC50 (>250 nM column)
[4] = x = IC50 25-250 nM, read-out: CDK4/CCND IC50 (25-250 nM)
[5] = x = IC50 25-250 nM, read-out: CDK1/CCNB IC50 (25-250 nM)
[6] = x = IC50 >250 nM, read-out: CDK4/CCND IC50 (>250 nM column)
[7] = x = IC50 >250 nM, read-out: CDK1/CCNB IC50 (>250 nM column)
[8] = x = IC50 25-250 nM, read-out: CDK2/CCNE IC50 (25-250 nM)
[9] = x = IC50 >250 nM, read-out: CDK2/CCNE IC50 (>250 nM column)

Sequence of CDK6/CCND1 (Q00534 whole entry): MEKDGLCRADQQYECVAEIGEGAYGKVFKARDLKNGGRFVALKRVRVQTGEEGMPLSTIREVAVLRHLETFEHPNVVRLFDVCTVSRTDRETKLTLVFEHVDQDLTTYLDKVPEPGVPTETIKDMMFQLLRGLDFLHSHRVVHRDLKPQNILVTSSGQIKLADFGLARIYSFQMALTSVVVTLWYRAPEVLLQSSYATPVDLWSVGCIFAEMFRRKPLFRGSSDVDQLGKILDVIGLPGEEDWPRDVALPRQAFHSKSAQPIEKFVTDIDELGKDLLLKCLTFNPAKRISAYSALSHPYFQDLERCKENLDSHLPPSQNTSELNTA
Sequence of CDK6/CCND1 (P24385 whole entry partner): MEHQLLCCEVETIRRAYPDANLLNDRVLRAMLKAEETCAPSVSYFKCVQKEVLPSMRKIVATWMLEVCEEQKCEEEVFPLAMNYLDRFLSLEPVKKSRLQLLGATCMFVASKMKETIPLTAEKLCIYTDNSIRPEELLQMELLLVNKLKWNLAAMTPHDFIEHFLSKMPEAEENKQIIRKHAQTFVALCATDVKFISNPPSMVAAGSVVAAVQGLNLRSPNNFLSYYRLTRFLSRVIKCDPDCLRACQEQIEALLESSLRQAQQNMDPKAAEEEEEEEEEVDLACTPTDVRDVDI

| SMILES | IC50 (CDK6/CCND1; [1]) | IC50 (CDK4/CCND3; x = IC50 <25 nM, read-out: CDK4/CCND IC50 (<25 nM)) | IC50 (CDK1/CCNB1; x = IC50 <25 nM, read-out: CDK1/CCNB IC50 (<25 nM)) | IC50 (CDK2/CCNE1; [2]) | IC50 (CDK6/CCND1; [3]) | IC50 (CDK4/CCND3; [4]) | IC50 (CDK1/CCNB1; [5]) | IC50 (CDK4/CCND3; [6]) | IC50 (CDK1/CCNB1; [7]) | IC50 (CDK2/CCNE1; [8]) | IC50 (CDK2/CCNE1; [9]) |
| --- | --- | --- | --- | --- | --- | --- | --- | --- | --- | --- | --- |
| CN1CCC(NS(=O)(=O)c2ccc(Nc3cc4c(C#Cc5ccc6c(c5)NC(=O)C6(C)C)nccc4cn3)cc2)CC1 [Example 441, 4-((5-((3,3-dimethyl-2-oxoindolin-6-yl)ethynyl)-2,6-naphthyridin-3-yl)amino)-N-(1-methylpiperidin-4-yl)benzenesulfonamide] | 25 to 250 nM | < 25 nM | < 25 nM | < 25 nM | – | – | – | – | – | – | – |
| Cc1c(-c2nccc3cnc(Nc4ccc(S(C)(=N)=O)cc4)cc23)ccc2c1cnn2CC(O)(C(F)(F)F)C(F)(F)F (stereo not drawn) [Example 482, Imino(methyl)(4-((5-(4-methyl-1-(3,3,3-trifluoro-2-hydroxy-2-(trifluoromethyl)propyl)-1H-indazol-5-yl)-2,6-naphthyridin-3-yl)amino)phenyl)-λ^6-sulfanone] | 25 to 250 nM | – | – | < 25 nM | – | 25 to 250 nM | – | – | > 250 nM | – | – |
| C[C@@H](C#Cc1nccc2cnc(Nc3ccc(S(C)(=O)=O)cc3)cc12)CO [Example 488, (S)-2-methyl-4-(7-((4-(methylsulfonyl)phenyl)amino)-2,6-naphthyridin-1-yl)but-3-yn-1-ol] | 25 to 250 nM | – | – | < 25 nM | – | 25 to 250 nM | – | – | > 250 nM | – | – |
| CS(=N)(=O)c1ccc(Nc2cc3c(C#Cc4cccnc4N)nccc3cn2)cc1 (stereo not drawn) [Example 490, (4-((5-((2-aminopyridin-3-yl)ethynyl)-2,6-naphthyridin-3-yl)amino)phenyl)(imino)(methyl)-λ^6-sulfanone] | – | – | – | – | > 250 nM | – | – | > 250 nM | > 250 nM | 25 to 250 nM | – |
| COC(=O)CCc1ccc(C#Cc2nccc3cnc(Nc4ccc(S(C)(=O)=O)cc4)cc23)cc1 [Example 493, methyl 3-(4-((7-((4-(methylsulfonyl)phenyl)amino)-2,6-naphthyridin-1-yl)ethynyl)phenyl)propanoate] | – | – | – | – | > 250 nM | – | – | > 250 nM | > 250 nM | 25 to 250 nM | – |
| CS(=O)(=O)c1ccc(Nc2cc3c(C#Cc4ccc(CCC(=O)O)cc4)nccc3cn2)cc1 [Example 494, 3-(4-((7-((4-(methylsulfonyl)phenyl)amino)-2,6-naphthyridin-1-yl)ethynyl)phenyl)propanoic acid] | – | – | – | < 25 nM | > 250 nM | – | – | > 250 nM | > 250 nM | – | – |
| CS(=O)(=O)c1ccc(Nc2cc3c(C#Cc4n[nH]c(=O)c5ccccc45)nccc3cn2)cc1 [Example 495, 4-((7-((4-(methylsulfonyl)phenyl)amino)-2,6-naphthyridin-1-yl)ethynyl) phthalazin-1(2H)-one] | – | – | – | – | > 250 nM | – | – | > 250 nM | > 250 nM | 25 to 250 nM | – |
| CS(=O)(=O)c1ccc(Nc2cc3c(C#Cc4n[nH]c5cnccc45)nccc3cn2)cc1 [Example 496, 5-((1H-pyrazolo[3,4-c]pyridin-3-yl)ethynyl)-N-(4-(methylsulfonyl)phenyl)-2,6-naphthyridin-3-amine] | – | – | – | < 25 nM | > 250 nM | – | – | > 250 nM | > 250 nM | – | – |
| CS(=O)(=O)c1ccc(Nc2cc3c(C#Cc4c(N)ncnc4Cl)nccc3cn2)cc1 [Example 510, 5-((4-amino-6-chloropyrimidin-5-yl)ethynyl)-N-(4-(methylsulfonyl)phenyl)-2,6-naphthyridin-3-amine] | – | – | – | < 25 nM | > 250 nM | – | – | > 250 nM | > 250 nM | – | – |
| COc1cnc(C#Cc2nccc3cnc(Nc4ccc(S(C)(=O)=O)cc4)cc23)nc1 [Example 513, 5-((5-methoxypyrimidin-2-yl)ethynyl)-N-(4-(methylsulfonyl)phenyl)-2,6-naphthyridin-3-amine] | – | – | – | – | > 250 nM | – | – | > 250 nM | > 250 nM | – | > 250 nM |
| CS(=O)(=O)c1ccc(Nc2cc3c(C#Cc4ccc5c(c4)OCC(=O)N5)nccc3cn2)cc1 [Example 519, 7-((7-((4-(methylsulfonyl)phenyl)amino)-2,6-naphthyridin-1-yl)ethynyl)-2H-benzo[b][1,4]oxazin-3(4H)-one] | – | – | – | – | > 250 nM | – | – | > 250 nM | > 250 nM | 25 to 250 nM | – |
| CS(=O)(=O)c1ccc(Nc2cc3c(C#Cc4ccc(C(F)F)nc4)nccc3cn2)cc1 [Example 524, 5-((6-(difluoromethyl)pyridin-3-yl)ethynyl)-N-(4-(methylsulfonyl)phenyl)-2,6-naphthyridin-3-amine] | – | – | – | – | > 250 nM | – | – | > 250 nM | > 250 nM | – | > 250 nM |

Other lines, results leading:

| IC50 (CDK6/CCND1; [1]) | IC50 (CDK4/CCND3; x = IC50 <25 nM, read-out: CDK4/CCND IC50 (<25 nM)) | IC50 (CDK1/CCNB1; x = IC50 <25 nM, read-out: CDK1/CCNB IC50 (<25 nM)) | IC50 (CDK2/CCNE1; [2]) | IC50 (CDK6/CCND1; [3]) | IC50 (CDK4/CCND3; [4]) | IC50 (CDK1/CCNB1; [5]) | IC50 (CDK4/CCND3; [6]) | IC50 (CDK1/CCNB1; [7]) | IC50 (CDK2/CCNE1; [8]) | IC50 (CDK2/CCNE1; [9]) | SMILES |
| --- | --- | --- | --- | --- | --- | --- | --- | --- | --- | --- | --- |
| – | – | – | < 25 nM | > 250 nM | 25 to 250 nM | 25 to 250 nM | – | – | – | – | CC1(C)C(=O)Nc2cc(C#Cc3nccc4cnc(Nc5ccc(S(C)(=O)=O)cc5)cc34)c(F)cc21 [Example 446, 5-fluoro-3,3-dimethyl-6-((7-((4-(methylsulfonyl)phenyl)amino)-2,6-naphthyridin-1-yl)ethynyl)indolin-2-one] |
| – | – | – | < 25 nM | > 250 nM | – | 25 to 250 nM | > 250 nM | – | – | – | CNS(=O)(=O)c1ccc(Nc2cc3c(C#Cc4cccnc4N)nccc3cn2)c(C)c1 [Example 449, 4-((5-((2-aminopyridin-3-yl)ethynyl)-2,6-naphthyridin-3-yl)amino)-N,3-dimethylbenzenesulfonamide] |
| – | – | – | < 25 nM | > 250 nM | – | – | > 250 nM | > 250 nM | – | – | Nc1ncccc1C#Cc1nccc2cnc(Nc3ccc(S(=O)(=O)Nc4nccc(N5CCOCC5)n4)cc3)cc12 [Example 464, 4-((5-((2-aminopyridin-3-yl)ethynyl)-2,6-naphthyridin-3-yl)amino)-N-(4-morpholinopyrimidin-2-yl)benzenesulfonamide] |
| – | – | – | – | > 250 nM | – | – | > 250 nM | > 250 nM | 25 to 250 nM | – | Nc1ncccc1C#Cc1nccc2cnc(Nc3cnc(O)c(N4CCNCC4)c3)cc12 [Example 465, 5-((5-((2-aminopyridin-3-yl)ethynyl)-2,6-naphthyridin-3-yl)amino)-3-(piperazin-1-yl)pyridin-2-ol] |
| – | – | – | < 25 nM | > 250 nM | – | 25 to 250 nM | > 250 nM | – | – | – | Cc1cc(C)nc(NS(=O)(=O)c2ccc(Nc3cc4c(C#Cc5cccnc5N)nccc4cn3)cc2)n1 [Example 471, 4-((5-((2-aminopyridin-3-yl)ethynyl)-2,6-naphthyridin-3-yl)amino)-N-(4,6-dimethylpyrimidin-2-yl)benzenesulfonamide] |
| – | – | – | < 25 nM | > 250 nM | – | – | > 250 nM | > 250 nM | – | – | Cc1c(C#Cc2nccc3cnc(Nc4ccc(S(C)(=O)=O)cc4)cc23)ccc2oc(=O)[nH]c12 [Example 472, 4-Methyl-5-((7-((4-(methylsulfonyl)phenyl)amino)-2,6-naphthyridin-1-yl)ethynyl)benzo[d]oxazol-2(3H)-one] |
| – | – | – | < 25 nM | > 250 nM | – | 25 to 250 nM | > 250 nM | – | – | – | Nc1ncccc1C#Cc1nccc2cnc(Nc3ccc(S(N)(=O)=O)cc3)cc12 [Example 475, 4-((5-((2-aminopyridin-3-yl)ethynyl)-2,6-naphthyridin-3-yl)amino)benzenesulfonamide] |
| – | – | – | – | > 250 nM | – | – | > 250 nM | > 250 nM | 25 to 250 nM | – | CS(=O)(=O)c1ccc(Nc2cc3c(C#Cc4ccc5[nH]c(=O)oc5c4)nccc3cn2)cc1 [Example 476, 6-((7-((4-(methylsulfonyl)phenyl)amino)-2,6-naphthyridin-1-yl)ethynyl)benzo[d]oxazol-2(3H)-one] |
| – | – | – | – | > 250 nM | – | – | > 250 nM | > 250 nM | 25 to 250 nM | – | CS(=O)(=O)c1ccc(Nc2cc3c(C#Cc4ccc(NC(=O)C5CC5)cc4)nccc3cn2)cc1 [Example 487, N-(4-((7-((4-(methylsulfonyl)phenyl)amino)-2,6-naphthyridin-1-yl)ethynyl)phenyl)cyclopropanecarboxamide] |
